Laboratory results from ChEMBL document CHEMBL1126452, “Synthesis of stereochemically defined phosphonamidate-containing peptides: Inhibitors for the HIV-1 proteinase” (Bioorg Med Chem Lett, 1992).
pIC50: −log10 of the molar value.

Molecular target: Human immunodeficiency virus type 1 protease (Human immunodeficiency virus 1, UniProt Q72874)
Assay: Inhibitory concentration against HIV-1 Protease at pH 5.6 and at 37 degrees C

CCC(C)[C@H](NC(=O)[C@@H]1CCCN1P(=O)(O)C(Cc1ccccc1)NC(=O)[C@H](CC(N)=O)NC(=O)OC(C)(C)C)C(=O)NCC(C)C (stereo not given in full)
pIC50: 3.93

CCC(C)[C@H](NC(=O)[C@@H]1CCCN1P(=O)(OC)C(Cc1ccccc1)NC(=O)[C@H](CC(N)=O)NC(=O)OC(C)(C)C)C(=O)NCC(C)C (single isomer, unassigned)
pIC50: 4.36

CCC(C)[C@H](NC(=O)[C@@H]1CCCN1P(=O)(OC)[C@@H](Cc1ccccc1)NC(=O)[C@H](CC(N)=O)NC(=O)OC(C)(C)C)C(=O)NCC(C)C (single isomer, unassigned)
pIC50: 3.24

CCC(C)[C@H](NC(=O)[C@@H]1CCCN1P(=O)(OC)[C@H](Cc1ccccc1)NC(=O)[C@H](CC(N)=O)NC(=O)OC(C)(C)C)C(=O)NCC(C)C (single isomer, unassigned; 2a)
pIC50: 3.85

CCC(C)[C@H](NC(=O)[C@@H]1CCCN1P(=O)(OC)[C@H](Cc1ccccc1)NC(=O)[C@H](CC(N)=O)NC(=O)OC(C)(C)C)C(=O)NCC(C)C (single isomer, unassigned; 2d)
pIC50: 3.87
